Experimental findings from PubChem BioAssay (NCI) are described below.

Test systems include CAKI-1 renal; DU-145 prostate; UO-31 renal; HOP-92 NSCLC; SW-620 colon; MDA-MB-435; ACHN renal; MCF7 breast; NCI/ADR-RES ovarian; SN12C renal.
Common to all, as to test: NCI-60 cell line screen, 48 h

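Following 48 hours of exposure in 96-well plates, responses at five concentrations were used to interpolate endpoints linearly. At the GI50, growth is halved. TGI: total growth inhibition.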

With `O=C(Nc1ccc(Cl)cc1)c1cc(S(=O)(=O)Nc2nnc(-c3ccccc3)c(-c3ccccc3)n2)c(SCc2ccccc2)cc1Cl`, the GI50 in the assay with CAKI-1 renal is 24.8 µM; with DU-145 prostate, 37.2 µM; in the assay on UO-31 renal, 35.9 µM; in the assay with HOP-92 NSCLC, 25.3 µM; in the assay with SW-620 colon it was 38.1 µM; with MDA-MB-435 it was 21.2 µM. Moreover, the GI50 in the assay on ACHN renal was 27.7 µM; in the assay on MCF7 breast it was 29.6 µM; in the assay on NCI/ADR-RES ovarian, above 50.2 µM; in the assay on SN12C renal, 16.4 µM. The TGI in the assay on CAKI-1 renal is above 59 µM; with DU-145 prostate, above 62.1 µM; with UO-31 renal, above 100 µM; with HOP-92 NSCLC it was 66.8 µM; with SW-620 colon, above 100 µM; in the assay on MDA-MB-435, 61.5 µM. Also, the TGI in the assay on ACHN renal was above 61.5 µM; with MCF7 breast, above 92 µM; with NCI/ADR-RES ovarian, above 80.2 µM; in the assay on SN12C renal it was 38.4 µM.

With `Cc1cc(C)c2c(SCc3ccc(Cl)cc3Cl)nc(N)nc2n1`, the TGI in the assay on CAKI-1 renal was above 100 µM; in the assay with DU-145 prostate, above 100 µM; in the assay with UO-31 renal it was 70.7 µM; in the assay on HOP-92 NSCLC, 58.1 µM; in the assay with SW-620 colon it was above 100 µM; with MDA-MB-435, above 100 µM. The TGI was above 100 µM in the assay on ACHN renal, above 100 µM in the assay on MCF7 breast, above 100 µM in the assay with NCI/ADR-RES ovarian and 60.7 µM with SN12C renal.

As to `COc1ccc(CC(NC(=O)[C@H](C)NC(=O)CN2CCOCC2)C(=O)N[C@@H](Cc2ccccc2)C(=O)[C@@]2(C)CO2)cc1` (stereo not given in full), the GI50 in the assay on CAKI-1 renal was 4.29 µM; with DU-145 prostate, 0.437 µM; in the assay on UO-31 renal, 3.2 µM; in the assay on HOP-92 NSCLC it was 0.227 µM; in the assay on SW-620 colon, 0.216 µM; in the assay on MDA-MB-435 it was 0.069 µM. The GI50 was 0.801 µM with ACHN renal, 0.129 µM in the assay on MCF7 breast, 19.8 µM in the assay with NCI/ADR-RES ovarian and 0.263 µM with SN12C renal. Moreover, the TGI in the assay with CAKI-1 renal is above 57.8 µM; in the assay with DU-145 prostate, 5.71 µM; in the assay on UO-31 renal it was 15.2 µM; in the assay with HOP-92 NSCLC, 0.758 µM; in the assay on SW-620 colon, 0.734 µM; in the assay with MDA-MB-435, 0.484 µM. In addition, the TGI is above 33.5 µM in the assay on ACHN renal, above 41.6 µM with MCF7 breast, above 100 µM in the assay with NCI/ADR-RES ovarian and 1.53 µM in the assay on SN12C renal.

Regarding `C1=C(c2ccccc2)SC=C(c2ccccc2)S1`, the TGI with CAKI-1 renal is above 100 µM; in the assay with DU-145 prostate it was above 100 µM; in the assay on UO-31 renal it was above 100 µM; in the assay with HOP-92 NSCLC it was above 100 µM; with SW-620 colon, above 100 µM; in the assay with MDA-MB-435, 32.2 µM. Besides, the TGI with ACHN renal is above 100 µM; in the assay with MCF7 breast, 48.2 µM; in the assay with NCI/ADR-RES ovarian, 64 µM; in the assay on SN12C renal, above 100 µM.

For the compound `COc1ccc(C(=O)COc2cccc(/C=C3\CSc4ccc(Cl)cc4C3=O)c2)cc1`, the GI50 was 12.4 µM in the assay on CAKI-1 renal; 12.7 µM in the assay with DU-145 prostate; 11.5 µM in the assay with UO-31 renal; 1.28 µM in the assay on HOP-92 NSCLC; 1.82 µM in the assay with SW-620 colon; 3.48 µM with MDA-MB-435. Besides, the GI50 in the assay with ACHN renal was 11.9 µM; with MCF7 breast, 1.5 µM; with NCI/ADR-RES ovarian, 11.4 µM; in the assay with SN12C renal, 8.16 µM. Besides, the TGI was determined as 25.1 µM in the assay on CAKI-1 renal; 25.3 µM in the assay with DU-145 prostate; 25.5 µM with UO-31 renal; 19.8 µM in the assay with HOP-92 NSCLC; 4.1 µM with SW-620 colon; 17 µM with MDA-MB-435. The TGI was determined as 24.6 µM in the assay on ACHN renal, 11.3 µM in the assay with MCF7 breast, 29.9 µM in the assay on NCI/ADR-RES ovarian and 25.7 µM in the assay with SN12C renal.

With `C=C1CC2(CCCC3(CC(=C)C(=O)O3)C2(C)C)OC1=O` (stereo not given), the TGI in the assay with CAKI-1 renal came out at 7.43 µM; in the assay with DU-145 prostate, 15.8 µM; in the assay on UO-31 renal, 9.53 µM; in the assay with HOP-92 NSCLC, 19.3 µM; in the assay on SW-620 colon it was 4.26 µM; with MDA-MB-435 it was 10.1 µM. For the same compound, the TGI in the assay on ACHN renal amounted to 2.4 µM; in the assay with MCF7 breast, 63.7 µM; with NCI/ADR-RES ovarian, 27.9 µM; in the assay with SN12C renal, 10.7 µM.

In the case of `C/C1=C/C(=O)O[C@@H]2C[C@@H](CC[C@H](C)/C=C\C=C\CC1)O[C@@](OCCc1ccccc1)([C@@H]1CSC(=O)N1)C2`, the GI50 is 0.0222 µM with CAKI-1 renal; 0.282 µM in the assay with DU-145 prostate; 0.0386 µM in the assay on UO-31 renal; 0.0119 µM in the assay on HOP-92 NSCLC; 7.04 µM in the assay on SW-620 colon; 0.324 µM in the assay on MDA-MB-435. Further, the GI50 is 0.0501 µM in the assay with ACHN renal, 5.37 µM with MCF7 breast, 2.95 µM in the assay with NCI/ADR-RES ovarian and 0.0787 µM in the assay with SN12C renal. In addition, the TGI is 0.0811 µM in the assay with CAKI-1 renal; above 17.5 µM with DU-145 prostate; 0.173 µM in the assay on UO-31 renal; 0.0661 µM with HOP-92 NSCLC; above 17.5 µM with SW-620 colon; 6.12 µM in the assay with MDA-MB-435. Also, the TGI in the assay with ACHN renal, with MCF7 breast, in the assay on NCI/ADR-RES ovarian and in the assay with SN12C renal was above 17.5 µM throughout.

In the case of `CC(C)(C)[Si](C)(C)OCC1C=CC(n2cnc3c(N)ncnc32)O1` (stereo not given), the TGI in the assay with CAKI-1 renal was above 100 µM; in the assay on DU-145 prostate it was above 100 µM; with UO-31 renal, above 100 µM; in the assay with HOP-92 NSCLC, 38.1 µM; in the assay with SW-620 colon, above 95.8 µM; in the assay on MDA-MB-435 it was 57.1 µM. Also, the TGI in the assay on ACHN renal is above 100 µM; in the assay with MCF7 breast, above 75.4 µM; with NCI/ADR-RES ovarian, above 100 µM; with SN12C renal, above 100 µM.

On to `O=C(Nc1cccc(O)c1)c1cccc(NC2=C(Cl)C(=O)N(Cc3ccccc3)C2=O)c1`, for which the GI50 in the assay on CAKI-1 renal was 0.318 µM; with DU-145 prostate, 3.61 µM; in the assay with UO-31 renal it was 6.61 µM; with HOP-92 NSCLC, 11.7 µM; in the assay with SW-620 colon it was 6.53 µM; in the assay on MDA-MB-435 it was 2.59 µM. Also, the GI50 is 17.9 µM in the assay on ACHN renal, 23.4 µM in the assay with MCF7 breast, 19.7 µM in the assay on NCI/ADR-RES ovarian and 8.26 µM in the assay on SN12C renal. For the same compound, the TGI amounted to 0.806 µM in the assay on CAKI-1 renal; 16 µM in the assay with DU-145 prostate; 21.7 µM in the assay on UO-31 renal; 29.4 µM in the assay with HOP-92 NSCLC; 29.9 µM in the assay with SW-620 colon; 11.4 µM in the assay on MDA-MB-435. The TGI with ACHN renal worked out at 33.1 µM; in the assay on MCF7 breast it was 59.9 µM; in the assay on NCI/ADR-RES ovarian, 37 µM; in the assay on SN12C renal, 22.1 µM.
